From patent publication US8779002B2, “Methods for treating a variety of diseases and conditions, and compounds useful therefor” (Salk Institute for Biological Studies, priority 2007, dated 2014) come the findings set out here.

Read-outs that look alike come from different tables or passages of the source.

One data set concerns Amyloid. Kind of data set: Amyloid dissociation. Also noted: key: + = positive result or enzyme activation.
The next data set relates to Rabbit stroke. Kind of data set: Rabbit stroke model. Also noted: key: + = positive result or enzyme activation. Conditions: in vivo.
A further data set has as its target JNK-3 (Homo sapiens, UniProt P53779). Kind of data set: Protein kinase panel: JNK-3. Conditions: panel of 14 protein kinases. The format is biochemical. An excerpt:
(§1) A panel of 14 protein kinases was screened against Cmpd CNB-001. […] In HT22 cells and primary cortical neurons, Cmpd CNB-001 blocked p38 and JNK phosphorylation caused by glutamate by about 30%, and inhibited cell death. The phosphorylation of the other tested kinases was not altered.

A further data set addresses JNK-1 (Homo sapiens, UniProt P45983). The experiment in a line: Protein kinase panel: JNK-1. The format is biochemical. Conditions: panel of 14 protein kinases.
From the text: as §1

In a further data set the target is JNK-2 (Homo sapiens, UniProt P45984). Kind of data set: Protein kinase panel: JNK-2. Conditions: panel of 14 protein kinases. The format is biochemical.
From the text: as §1

Another data set has as its system p38. The experiment in a line: p38 phosphorylation caused by glutamate. Format: cell-based. The note with it: HT22 cells and primary cortical neurons.
From the text: as §1

The test system of another data set is JNK. The experiment in a line: JNK phosphorylation caused by glutamate. Format: cell-based. The note with it: HT22 cells and primary cortical neurons.
From the text: as §1

Data set [1] is described as follows: Plasma concentration and brain content after a single oral dose by gavage. Format: in vivo, mouse. The note with it: for concentration at 0 hr / concentration at 1 hr / concentration at 2 hr: female, mouse, BALB/c mice. Here is the method:
The pharmacokinetic properties of a single oral dose of exemplary compounds according to the invention, i.e., Cmpd 11-001 and Cmpd J147, are studied in 10-week old female BALB/c mice. Cmpd 11-001 or J147 are emulsified in 2.5% carboxymethyl cellulose at a concentration of 20 mg/ml and administered by gavage at a dosage of 400 mg/kg body weight or 200 mg/kg body weight, respectively. The mice are then sacrificed at various intervals after administration (0, 1 hr, 2 hr, 4 hr, and 6 hr).
Plasma is obtained from blood (mixed with K3EDTA to prevent coagulation) by centrifugation at 4,300 g for 10 min, extracted twice with ethyl acetate/propanol (9:1, v/v). The extracts are centrifuged at 5,000 g for 10 min to form aqueous/organic layers. The organic layer containing Cmpd 11-001 is centrifuged at 20,000 g for 10 min to sediment particles. The extraction recovery from plasma is approximately 90%. Thirty μl thereof were analyzed by HPLC equipped with a C18 reversed phase column—Cmpd 11-001 is detected at 330 nm. The elution solvent system is 50% acetonitrile, 50% water and 1 g/L trifluoroacetic acid with a flow rate of 1 ml/min.
To study the distribution of compounds according to the invention in brain at various time intervals (0, 1 hr, 2 hr, 4 hr, and 6 hr) after gavage (400 mg/kg or 200 mg/kg as noted above), the mice are anesthetized with cloral hydrate and perfused through the heart with phosphate buffered saline (PBS) to remove blood in the brain. The mice are then decapitated, the brains removed, and quickly frozen and stored at −80° C. before further analysis. To measure the level of invention compound in the brain, weighed brain pieces are homogenized by sonication in 3 volumes of PBS. The homogenates are then extracted and measured by HPLC as described above.

Where [2] appears, read: brain, 200 mg/kg single oral dose by gavage, read-out: Brain content.
The mark [3] stands for this setting: plasma, 200 mg/kg single oral dose by gavage, read-out: Plasma concentration.

Sequence of JNK-1 (P45983 whole entry, species assumed): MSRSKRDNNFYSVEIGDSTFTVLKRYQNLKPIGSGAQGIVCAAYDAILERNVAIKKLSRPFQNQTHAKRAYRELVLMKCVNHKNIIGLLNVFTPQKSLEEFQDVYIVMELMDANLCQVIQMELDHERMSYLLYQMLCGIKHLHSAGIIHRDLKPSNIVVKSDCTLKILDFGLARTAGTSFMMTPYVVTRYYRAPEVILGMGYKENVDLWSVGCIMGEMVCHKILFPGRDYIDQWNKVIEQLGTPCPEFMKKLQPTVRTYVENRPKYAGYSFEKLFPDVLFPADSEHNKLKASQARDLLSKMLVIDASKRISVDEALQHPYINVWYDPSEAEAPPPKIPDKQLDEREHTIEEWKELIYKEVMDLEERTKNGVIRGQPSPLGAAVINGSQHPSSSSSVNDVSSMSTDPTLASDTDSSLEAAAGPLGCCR
Sequence of JNK-2 (P45984 whole entry, species assumed): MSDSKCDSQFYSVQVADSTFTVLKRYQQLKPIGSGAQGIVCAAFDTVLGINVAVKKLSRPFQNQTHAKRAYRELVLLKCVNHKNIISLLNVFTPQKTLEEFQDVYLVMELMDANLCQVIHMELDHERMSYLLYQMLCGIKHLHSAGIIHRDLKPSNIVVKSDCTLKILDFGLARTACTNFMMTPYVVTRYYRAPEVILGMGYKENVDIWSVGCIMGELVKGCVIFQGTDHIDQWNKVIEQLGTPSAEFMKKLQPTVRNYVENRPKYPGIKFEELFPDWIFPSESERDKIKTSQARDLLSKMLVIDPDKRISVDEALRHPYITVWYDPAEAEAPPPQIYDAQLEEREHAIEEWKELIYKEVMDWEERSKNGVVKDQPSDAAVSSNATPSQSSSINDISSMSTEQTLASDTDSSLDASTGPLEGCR
Sequence of JNK-3 (P53779 whole entry, species assumed): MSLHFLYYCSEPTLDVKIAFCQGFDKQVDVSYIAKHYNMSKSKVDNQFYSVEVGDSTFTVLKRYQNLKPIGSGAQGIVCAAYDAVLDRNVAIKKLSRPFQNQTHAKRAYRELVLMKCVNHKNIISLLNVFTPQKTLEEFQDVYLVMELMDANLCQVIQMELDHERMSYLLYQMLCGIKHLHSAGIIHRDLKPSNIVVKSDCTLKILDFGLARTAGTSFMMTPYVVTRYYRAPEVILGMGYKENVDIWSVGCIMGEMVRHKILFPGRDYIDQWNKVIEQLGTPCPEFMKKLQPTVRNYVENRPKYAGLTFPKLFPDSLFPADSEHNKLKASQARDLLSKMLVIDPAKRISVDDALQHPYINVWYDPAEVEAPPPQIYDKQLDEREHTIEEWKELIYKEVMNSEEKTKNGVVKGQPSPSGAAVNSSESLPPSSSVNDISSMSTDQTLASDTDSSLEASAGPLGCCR

For `COc1cc(/C=C/c2cc(/C=C/c3ccc(O)c(OC)c3)n(-c3ccccc3)n2)ccc1O` [CNB-001], the “Amyloid Dissociation” value in the data set on Amyloid is reported as “+”. For the same compound, the “Animal Models, Rabbit stroke” value in the data set with Rabbit stroke is recorded as “+”. Further, the Inhibition of kinase result at JNK-3 is “partially inhibited”; at JNK-1, “None of the other enzymes that were assayed, including JNK-1 or JNK-2, were affected”; on JNK-2, “None of the other enzymes that were assayed, including JNK-1 or JNK-2, were affected”. Moreover, the “Block of p38 phosphorylation caused by glutamate” value with p38 is reported as “about 30%”. The “Block of JNK phosphorylation caused by glutamate” value with JNK is “about 30%”.

Take `COc1cccc(/C=N/N(C(=O)C(F)(F)F)c2ccc(C)cc2C)c1` [Compound J147]: the “Time at which maximum plasma concentration is reached after administration” value in data set [1] (200 mg/kg single oral dose by gavage, mice) is “about 1 hr”. In addition, in data set [1] (setting [2]), the concentration at 0 hr came out at 0 ng/g, the concentration at 1 hr turned out to be 3900 ng/g and the concentration at 2 hr stood at 2800 ng/g. In data set [1] (setting [3]), the concentration at 0 hr came to 0 ng/mL, the concentration at 1 hr was 5600 ng/mL and the concentration at 2 hr worked out at 300 ng/mL. The “Retention in the brain” value in data set [1] (relative to 11-011, after oral gavage in mice) is “improved ability to be retained in the brain”.
